According to patent publication US6773702B2, “Use of combretastatin A4 and its prodrugs as an immune enhancing therapy” (OXiGENE, Inc., priority 2000, dated 2004):

Experiments:
[1] = test system: colon carcinoma H1D2-WT cells; test: Intrahepatic growth of colon carcinoma H1D2-WT, tumor volume after 4 weeks (Table 2); type: in vivo, rat; details: no CA4-P; L-NAME gavage; with immunization
Procedure: Table 2 is a summary of intrahepatic growth of colon carcinoma H1D2-WT cells treated with low dose CA4P alone or in combination with immunomodulatory gene therapy, and with or without additional inhibitor. Tumor growth was initiated by inoculation beneath the liver capsule with 1×10^5 in vitro cultured BN7005-H1D2 wild type cells suspended in 50 μl RPMI medium. Drug administration (CA4P, L-NAME, Indomethacin) was initiated after 7-8 days when the tumor was macroscopically visible. CA4P was given intraperitoneally, 5 days a week. L-NAME was given by gavage twice a week on the day of immunization and the day after. Indomethacin was given by gavage 48 h after vaccination at a dose of 0.33 mg/kg. Immunization was performed by intraperitoneal administration on day 10 and day 17 using BN7005-H1D2 cells transfected with IL-18 or a mixture of IL-18 and IL-12 transfectants (2-3×10^6 viable cells per rat).
Wild-type (BN7005-H1D2) colon cancer cells (1×10^5 cells) were inoculated intrahepatically and CA4P drug treatment (2 and 5 mg/kg) began daily when the tumors were macroscopically visible. On day 10 and 17, vaccinations were administered intraperitoneally using […] cells transfected with IL-18 transfected cells or mixtures of IL-18 and IL-12 transfected cells (2-3×10^6 viable cells per rat). L-NAME and Indomethacin were also administered by gavage 48 h after vaccination at a dose of 0.33 mg/kg.

[2] = test system: BN7005-H1D2 colon cancer cells; test: Tumor growth with IL-18/IFN-γ vaccination plus CA4P and/or L-NAME (FIG. 6); type: in vivo, rat; details: L-NAME by gavage 48 mg/rat + vaccination with IL-18/IFN-γ producing tumor cells
Procedure: FIG. 6 illustrates enhancement of the therapeutic effect of vaccination with IL-18/IFN-γ producing tumor transfectant […] cells by concurrent treatment with low dose combretastatin-A4 prodrug and/or L-NAME. Mean tumor volume±SEM is indicated. Significance of differences compared to the PBS control was evaluated by the Student's t test.
Four groups of 6 rats each were inoculated intrahepatically with 1×10^5 wild type colon cancer cells (BN7005-H1D2) on day 0. Drug treatment was initiated on day 7, when the tumor was macroscopically visible as a small nodule, and was repeated 5 days a week. CA4-P was administered i.p. at a dose of 5 mg/kg and L-NAME by gavage at a dose of 48 mg/rat. Vaccination was given twice i.p. on day 10.and 17 with 2×10^6 tumor cells producing IL-18 and IFN-γ, respectively. No drug treatment was given on the day of vaccination and the day after. On day 28 all animals were laparotomized and tumor diameters measured (the longest diameter (a) and the one perpendicular to the first (b) and tumor volume calculated according to the formula 0.4×a×b×b.
Referring to FIG. 6, wild-type (BN7005-H1D2) colon cancer cells were inoculated intrahepatically and combretastatin A4 prodrug treatment began daily on day 7 when the tumors were macroscopically visible. L-NAME, a well known NO inhibitor and effective antitumor agent, was also administered daily. On day 10 and 17 vaccination occurred using BN7005-H1D2 cells transfected with IL-18/IFN-gamma. […] One likely explanation was that both L-NAME and Combretastatin A4 were doing the same thing; i.e. inhibiting the production of proinflammatory cytokines that cause immune suppression.

[3] = test system: spleen cells of H1D2-WT tumor-bearing rat; test: In vitro proliferative response of spleen cells from a tumor-bearing rat treated with CA4 plus immunotherapy (FIG. 4); type: in vivo; details: for T cell proliferative response: CA4 2 mg/kg + active immunotherapy
Procedure: FIG. 4 illustrates the enhanced in vitro immune proliferative response (cpm) of spleen cells isolated from (H1D2-WT) a tumor-bearing rat previously treated in vivo with a combination of active immunomodulatory therapy and CA4 (2 mg/kg, 6 days a week). Spleen cells were tested 9 weeks after tumor inoculation when tumor sizes was 0.9 cm^3. LO signifies spleen cells containing adherent macrophages, whereas L1 represents the same population depleted of adherent macrophages. A subset of each cell sample was treated with either medium (Med) or L-NAME (1.5 mg/ml).
While the anti-tumor properties of CA4 and CA4P are very different, the present invention embraces the discovery that a low dose of either compound is capable of enhancing the immune responsiveness of a tumor host. FIG. 4 illustrates the in vitro immune proliferation of spleen cells isolated from a tumor-bearing rat previously subjected to treatment with a combination of CA4 (2 mg/kg) and active immunotherapy. The rat was killed 9 weeks after initiation of intrahepatic tumor growth, at which point the tumor had grown to a size of 0.9 cm^3. Control rats receiving immunotherapy alone were euthanized 5 weeks earlier due to the development of large tumor burdens (>5 cm3).
A tumor-bearing rat (H1D1-WT) was treated in vivo with weekly immunizations of IL-18 transfected tumor cells (H1D1-IL-18), in addition to CA4 treatment (2 mg/kg) 6 days a week. Due to the inherent insolubility of CA4, […] (0.9 cm^3 tumor) following […] of growth, at which point the untreated control rats were all dead with large tumor burdens (>5 cm^3) and would not be expected to show an immune response at such a late stage. Both unseparated spleen cells (L0) and nonadherent spleen cells (L1), depleted of most macrophages by plastic adherence (as in Example 2), were tested for a proliferative response to H1D2-IL18 tumor stimulator cells in the absence or presence of the NO-synthase inhibitor L-NAME.

[4] = test system: BN7005-H1D2 colon cancer cells; test: Comparison of CA4 and CA4P on BN7005-H1D2 tumor growth, alone or with vaccination (FIG. 5); type: in vivo, rat
Procedure: FIGS. 5A AND 5B illustrate a comparison of the therapeutic effect of Combretastatin A4 and Combretastatin A4 Prodrug (2 mg/kg) on tumor growth (BN7005-H1D2) in vivo as a sole therapy or in combination with therapeutic vaccination (IL-18 tumor transfectants). Results are represented as mean tumor volume (FIG. 5A) or as median tumor volume (FIG. 5B) 31 days after tumor initiation.
A comparison was also made of relative effect of CA4 and CA4P administration in vivo with regard to tumor inhibitory effects when used as sole therapy and when combined with immunomodulatory gene therapy. […] A subset of these animals were subjected to regular vaccinations autologous IL-18 and IL-12-transfected tumor cells, respectively.
A comparison has been made of the effect of CA4 and CA4 prodrug with regard to tumor inhibitory effects when used as sole therapy and when combined with immunomodulatory gene therapy. As represented in FIG. 5, wild-type (BN7005-H1D2) colon cancer cells were inoculated intrahepatically and treatment with CA4 and CA4P began on day 7 (2 mg/kg 6 days a week), when the tumors were macroscopically visible. On day 9, 16 and 23, vaccinations occurred using BN7005-H1D2 cells transfected with ILI8 and IL-12, respectively.

[5] = cited from earlier work

## COC(=O)[C@@H](N)CCCNC(=N)N[N+](=O)[O-] [L-NAME, reference compound]
[1]
  Tumor volume after 4 weeks, Mean: 1285 mm^3
  Tumor volume after 4 weeks, Median: 879 mm^3
[2]
  Enhancement of immune stimulated gene therapy: effective enhancers of immune stimulated gene therapy

## COc1ccc(/C=C\c2cc(OC)c(OC)c(OC)c2)cc1O [CA4, Combretastatin A4]
[3]; 9 weeks after initiation of intrahepatic tumor growth, CA4 2 mg/kg + active immunotherapy (controls >5 cm3)
  Tumor size: 0.9 cm^3
[3]; non-adherent T cells (L1), 9 weeks
  T cell proliferative response: 86,000 cpm
[3]; unseparated spleen cells (L0) in the presence of L-NAME in vitro
  T cell proliferative response: 44,000 cpm
[3]; unseparated spleen cells (L0), 9 weeks after tumor initiation
  T cell proliferative response: 9000 cpm
[4]; 2 mg/kg 6 days a week as sole therapy
  Tumor inhibitory effect: no significant effect as sole therapy
[4]; 2 mg/kg combined with vaccination (IL-18 and IL-12 transfected tumor cells)
  Tumor inhibitory effect: significant tumor inhibitory effects
[5]
  Solubility in water: very limited
